According to patent EP3431088A1, “MNTBAP FOR USE IN INDUCING A TRANSIENT IMMUNE TOLERANCE” (priority 2017, dated 2019):

Columns and labels:
[1] = tested on: CD4; assay: CD4 cell surface expression by flow cytometry; type: cell-based, murine
Method: (§1) MnTBAP (Calbiochem, San Diego, USA or Enzo Life Sciences, Farmingdale, USA) is dissolved in 75 mM NaOH to constitute a 20 mM stock solution. MnTBAP is dissolved in the complete medium, used for in vitro treatment, containing RPMI-1640 supplemented with 10% heat-inactivated fetal calf serum, 100 U/ml penicillin/streptomycin, 2 mM glutamax and 50 µM β-mercaptoethanol β-ME). Hypertonic medium, used to block clathrin dependent endocytosis, is complete medium supplemented with 0.45 M sucrose. For in vivo treatment, the stock solution is diluted with PBS and administered at 80 mg/kg intraperitoneally daily during five days. Control animals are injected with equivalent volume of PBS.
(§2) After mechanic disruption of the spleen, erythrocytes are eliminated by hypotonic shock with ammonium chloride potassium (ACK) lysing buffer. Then CD4^+ T cells are isolated from spleen cell suspension by negative selection using a CD4^+ T cell isolation kit (Miltenyi Biotec, Paris, France) followed by auto-MACS (Miltenyi Biotec) magnetic sorting, according to the manufacturer's instructions. Purity of isolated CD4^+ T cells is usually > 95%. Cell suspensions are first incubated with anti-FcγRIII/II (Fc Block, 2.4G2, BD Biosciences, Le Pont de Claix, France) monoclonal antibodies (mAb) for 10 minutes at 4°C and then stained for 30 minutes at 4°C in PBS, 0.1% bovine serum albumin (BSA) with Fc Block present, using saturating amounts of rat anti-mouse CD4-Pacific Blue (RM4-5, BD Biosciences) mAb. Gates for CD4^+ populations are set according to isotype controls. Cell viability is determined by staining with 7-aminoactinomycin D (7-AAD; Sigma-Aldrich, St-Quentin-Fallavier, France) or Fixable Viability Dye eFluor 780 (eBiosciences, Paris, France). When indicated, samples are fixed with 1% paraformaldehyde. Samples are acquired on an LSR II flow cytometer (BD Biosciences) and data were analyzed with DIVA software (BD Biosciences).

[2] = tested on: transgene-specific CD8^+ and CD4^+ T-cell responses; assay: IM rAAV gene transfer: transgene-specific T-cell responses by IFN-γ ELISPOT; type: in vivo, C57BL/6 mice; conditions: vs PBS
Method: as §1
Intramuscular (IM) injection: Two hours post first intraperitoneal (IP) injection of MnTBAP, mice are anesthetized by IP injection of xylazine (10 mg/kg) and ketamine (100 mg/kg) and 25 µl of a rAAV2/1 CMV SGCA HY viral preparation containing 2.5.10^9 vg is injected in the left tibialis anterior muscle (TA). Controls are injected with PBS. […] Spleens are harvested to analyze transgene-specific T cell response.
Spleens are harvested to analyze the cellular immune anti-transgene response by T-cell cytokine response assay. Multiscreen-HA Assay System 96-well Filtration plates (Merck) are coated overnight with 2.5 µg/ml of anti-mouse IFN-γ purified mAb (eBiosciences) at 4°C, washed, and then blocked with RPMI 1640 medium (Life Technologies, Saint-Aubin, France) supplemented with 10% heat inactivated fetal bovine serum (FCS), 100U/ml penicillin/streptomycin (Thermo Fisher Scientific) and 2mM GlutaMAXTM-I (Life technologies) for 2 hours at 37°C. Plates are washed three times with RPMI 1640 medium without FCS. […] Spots are counted using an AID reader (Ceipheid Benelux, Louven, Belgium). Spot forming units (SFU) per million cells for each mouse are calculated as the average value of duplicate measures after subtraction of background values obtained with in vitro unstimulated splenocytes.

[3] = tested on: splenic enriched CD4^+ T cells; assay: Cell viability by Fixable Viability Dye eFluor 780, flow cytometry; type: cell-based, murine; conditions: 400 µM, 2 hours
Method: as §2

[4] = tested on: splenic T-lymphocyte subsets; assay: Absolute numbers of splenic T-lymphocyte subsets by flow cytometry; type: in vivo, mice; conditions: 15 days post first injection, after gene transfer, vs PBS
Method: as §1
Intramuscular (IM) injection: Two hours post first intraperitoneal (IP) injection of MnTBAP, mice are anesthetized by IP injection of xylazine (10 mg/kg) and ketamine (100 mg/kg) and 25 µl of a rAAV2/1 CMV SGCA HY viral preparation containing 2.5.10^9 vg is injected in the left tibialis anterior muscle (TA). Controls are injected with PBS. Mice are sacrificed 15 days after vector injection and the injected muscles are harvested to perform histologic analysis. Spleens are harvested to analyze transgene-specific T cell response.
After mechanic disruption of the spleen, erythrocytes are eliminated by hypotonic shock with ammonium chloride potassium (ACK) lysing buffer. […]

[5] = eight days post vector injection

For `O=C(O)c1ccc(-c2c3nc(c(-c4ccc(C(=O)O)cc4)c4ccc([n-]4)c(-c4ccc(C(=O)O)cc4)c4nc(c(-c5ccc(C(=O)O)cc5)c5ccc2[n-]5)C=C4)C=C3)cc1.[Mn+3]` [MnTBAP, manganese [III] tetrakis (4-benzoic acid) porphyrin], the “CD4 expression (CD4 GMFI)” value ([1]; 2 hours after washing out MnTBAP ("2 h removed")) was “the decrease of CD4 expression is less important”, the “CD4 expression (CD4 GMFI)” value ([1]; fixed cells, 400 µM, 2 hours ("treated") vs "none") was “decrease of CD4 expression” and the CD4 expression ([1]; hypertonic conditions (RPMI + 0.45 M sucrose), 400 µM, 2 hours, treated vs non-treated) was “no significant difference of CD4 expression”. The “percentage of CD4 expression” value ([1]; normal tonicity (RPMI), 400 µM, 2 hours, vs non-treated) was “decreased”, the “CD4 expression (CD4 GMFI)” value ([1]; overnight after removing MnTBAP ("O/N removed")) was “further less accentuated” and the “CD4 at the cell surface of CD4 expressing cells” value ([1]; splenic enriched CD4+ T cells, 400 µM, 2 hours, vs control) was “disappearance of CD4 at the cell surface”. For the same compound, the CD4 expression ([1]; viable murine splenic enriched CD4+ T cells, 2 hours, 400 µM) was “maximal decrease of CD4 expression”, the CD4 expression ([1]; viable murine splenic enriched CD4+ T cells, 2 hours, increasing doses 0, 100, 200, 400 µM) was “progressive decrease of CD4 expression” and the “IFN-γ response of transgene specific CD4^+ T cells” value [2, 5] was “significantly decreased”. The “IFN-γ response of transgene specific CD8^+ T cells” value [2, 5] was “no significant differences”, the “IFN-γ response of transgene specific CD8^+ T cells” value ([2]; fifteen days post vector injection) was “significantly decreased” and the “cell death (eFluor 780+ dead cells)” value [3] was “doesn't result in more eFluor 780+ dead cells”. For the same compound, the “absolute number of splenic CD4^+ T cells” value [4] was “significant decrease in the absolute number” and the “absolute number of splenic CD8^+ T cells” value [4] was “significant decrease in the absolute number”.
